Assay: Clinical DDI cohort: midazolam with pomotrelvir 1050 mg b.i.d.
[1] = 1 mg midazolam alone, Day 1, N = 8
[2] = midazolam + pomotrelvir 1050 mg twice daily, Day 6
[3] = midazolam + pomotrelvir 1050 mg twice daily, Day 11

Row | SMILES | AUCinf geometric mean [1] [ng·h/mL] | AUClast geometric mean [1] [ng·h/mL] | Cmax geometric mean [1] [ng/mL] | AUCinf geometric mean ratio (MDZ + POMO)/(MDZ) (Day 6 vs Day 1) | AUClast geometric mean ratio (MDZ + POMO)/(MDZ) (Day 6 vs Day 1) | Cmax geometric mean ratio (MDZ + POMO)/(MDZ) (Day 6 vs Day 1) | AUCinf geometric mean ratio (MDZ + POMO)/(MDZ) (Day 11 vs Day 1) | AUClast geometric mean ratio (MDZ + POMO)/(MDZ) (Day 11 vs Day 1) | Cmax geometric mean ratio (MDZ + POMO)/(MDZ) (Day 11 vs Day 1) | AUCinf geometric mean [2] [ng·h/mL] | AUClast geometric mean [2] [ng·h/mL] | Cmax geometric mean [2] [ng/mL] | AUCinf geometric mean [3] [ng·h/mL] | AUClast geometric mean [3] [ng·h/mL] | Cmax geometric mean [3] [ng/mL] | Cmax (both, human, plasma, oral, 1 mg) [ng/mL]
1 | OCc1ncc2n1-c1ccc(Cl)cc1C(c1ccccc1F)=NC2 [1‐OH‐midazolam, 1‐hydroxy‐midazolam] | 4.76 | 4.72 | 1.36 | 0.65 | 0.62 | 0.53 | 0.56 | 0.56 | 0.58 | 3.09 | 2.87 | 0.73 | 2.66 | 2.64 | 0.8 | 
2 | Cc1ncc2n1-c1ccc(Cl)cc1C(c1ccccc1F)=NC2 [Midazolam, midazolam, reference compound] |  |  |  | 1.48 | 1.51 | 1.09 | 1.33 | 1.36 | 1.09 |  |  | 4.44 |  |  | 4.44 | 4.06

— article PMC10583239 (CPT: Pharmacometrics & Systems Pharmacology, 2023)
